From patent US20260035364A1, “BICYCLIC TETRAHYDROTHIAZEPINE DERIVATIVES” (Hoffmann-La Roche Inc., priority 2022, published 2026) come the findings set out here.

What is called Emax is the greatest response seen or fitted, relative to the assay's reference. One may read the EC50 as the concentration at which the effect is half-maximal. For orientation: IC50 means the concentration that inhibits the measured activity by half. A higher IC50 goes with weaker potency.

For one assay, the system named is primary human T-cells. Briefly: IL2 secretion measurements in CD3-stimulated T-cells. It counts as cell-based. Conditions: Homo sapiens, T-cell, 24 h, CD3 condition; for Emax: IL2 after 24 hours, 20 μM reference compound A1 = 100%, read-out: Emax IL2 (% activation); for EC50: IL2 secretion after 24 hours, read-out: Tcell IL2 CD3 EC50. Here is the method: As readouts for T-cell activation, IL2 secretion after 24 hours and proliferation after 5 days was measured. Increases in IL2 secretion and proliferation upon compound treatment were assessed as the % of the maximum of reference compound A1. WO 2016/139181 discloses reference compound A1 as example 70. As a counter screen and to make sure that no unwanted TCR-independent activation was triggered, PBS conditions were run for all compounds.
Expanded primary human T-cells were thawed and cultured in RPMI 1640 (Gibco, #61870-010)+5% human serum (HS, Sigma, #H3667)+1 mM Sodium Pyruvate (Gibco, #11360-039)+50 μM 2-mercaptoethanol (Gibco, #31350-010) and 1× Pen-Strep (Life Technologies, #15140122) medium at density of 2 Mio/ml for 3 hours in 5% CO2, 37° C. and 95% humidity. For coating of plates, […] or PBS++ with CD3 antibody (concentration depending on donor and determined by CD3 titrations) was added 100 μl/well to Poly-D Lysine coated 96-well plates. Plates were sealed and incubated at room temperature for 3 hours on a table-top rocking platform. After incubation, plates were washed once with PBS−− and filled with 40 μl/well culture medium only. Compounds were then added (see next section) to medium only plates. After 3 hours of culturing the T-cells, cells were filtered through a cell strainer (Miltenyi Biotech, #130-041-407), counted again and concentration was adjusted to 1.25 Mio/ml.
Cells were then seeded 80 μl/well to the 40 μl/well including dispensed compounds according to plate layout. By adding cells, compounds were further diluted 1:3, and resulting in 100k cells/120 µl/well. After 24 hours 40 μl of supernatant was collected carefully from the top while not disturbing the cells and transferred into a round bottom 96 well plate. Collected and frozen supernatant was used for detection of IL2 using the IL-2 Human ProQuantum Immunoassay Kit (Invitrogen) or using the Human IL-2 ELISA Kit (Thermo Fisher).
Compound Treatment Compounds were added in a 5 or 6 pt dose response with the Tecan D300e Digital Dispenser, all conditions 3 times more concentrated than the end-concentration, since cells are added afterwards (80p1 cells to 40p1 prepared medium with treatment). The DR was starting at 20 μM or 10 μM final top concentration and a dilution factor of 3.333. The positive control was the reference compound A1 that was added in a dose response as well, additionally to 3 wells of only 20 μM representing the positive stimulator control. All wells were normalized with DMSO to a final concentration of 0.6% (0.2% end-concentration).
The immunoassay is done following the manufacturer's manual (Invitrogen, #A35603).
Additional information: For the immunoassay, MicroAmp™ EnduraPlate™ Optical 384-Well plates are used. Frozen supernatant is thawed and centrifuged for 5 minutes at 1000×g, both steps at 4° C. After centrifugation, required sample amount is taken from the top, and in a separate LightCycler V-bottom plate (working plate) diluted with assay dilution buffer, dilution factor depending on the PBS or CD3 condition but at least 1:3. IL-2 standard and blanks are prepared in the same V-bottom plate, standard with a range of 0.0128-5000 pg/ml (extended version). After preparation, 5 μl of sample dilutions or standard/blanks are transferred to the optical 384-well plate (assay plate) and the 10 μl reaction protocol is being followed. For measurement, the QuantStudio 12K Flex system is used. Raw data is extracted and IL-2 concentrations are calculated with the Thermo Fisher online app (apps.thermofisher.com/apps/proquantum).
ELISA is done following the manufacturer's manual (Thermo Fisher Scientific, #88-7025-88). Additional information: For the ELISA Nunc MaxiSorp 96 well plates are used. Frozen supernatant is thawed and centrifuged for 5 minutes at 1000×g, both steps at 4° C. […]

Another assay addresses DGKalpha (Homo sapiens, UniProt P23743). Briefly: In vitro DGK inhibition assay (ADP-Glo, liposomes), DGKalpha. It counts as biochemical. Particulars: 4 nM DGK α, 25 μM ATP, 125 uM DLG in liposomes, 1 hour reaction. Also noted: hDGKalpha(1-735)-N-His; His (N); made in house; host or cells: Sf21 insect cells (baculovirus). The method, then: DGK α and ζ kinases use ATP to phosphorylate the substrate 1,2-dilauroyl-sn-glycerol (DLG, incorporated in the liposomes). ATP is converted to ADP as a result of this enzymatic reaction. After the kinase reaction, an ATP-depletion reagent is added to terminate the kinase reaction and deplete any remaining ATP, leaving only ADP. Second, a detection reagent is added to simultaneously convert ADP to ATP and allow the newly synthesized ATP to be converted to light using a coupled luciferase/luciferin reaction.
Full length DGKA and Z were expressed in Sf21 insect cells by infecting the cells with the baculovirus stock at MOI of 2. Purification of both enzymes was performed as previously described by Takahashi et al., PeerJ, 2018 (Takahashi, D.; Sakane, F. Expression and purification of human diacylglycerol kinase alpha from baculovirus-infected insect cells for structural studies. PeerJ 2018, 6, No. e5449).
A concentrated liposome solution was prepared in assay buffer without DTT and BSA: 2 mM of DLG in 21 mM of total liposome (2 mM DLG/8 mM PS/11 mM PC). The reaction mixtures contain the assay buffer with a final DLG concentration of 125 uM ATP concentrations of 25 μM (for DGKA assay) or 50 μM (for DGKZ assay). The reactions were started by addition of DGK a and (kinases at 4 nM and 2 nM final concentrations, respectively. After 1 hour reaction, the amount of ADP formed was detected with the ADP-Glo kinase assay (Promega) according to the manufacturer instructions. Compounds were added in 11-points dose response, starting at […], 1:3 dilutions, with a final DMSO concentration of 2%. The multidrop combi was used as a liquid handler and luminescence was read with 0.5 s by the envision reader (PE).
(ADP-Glo first removes unused ATP, then detects ADP through luciferase.)

DGKalpha, sequence (P23743 whole entry): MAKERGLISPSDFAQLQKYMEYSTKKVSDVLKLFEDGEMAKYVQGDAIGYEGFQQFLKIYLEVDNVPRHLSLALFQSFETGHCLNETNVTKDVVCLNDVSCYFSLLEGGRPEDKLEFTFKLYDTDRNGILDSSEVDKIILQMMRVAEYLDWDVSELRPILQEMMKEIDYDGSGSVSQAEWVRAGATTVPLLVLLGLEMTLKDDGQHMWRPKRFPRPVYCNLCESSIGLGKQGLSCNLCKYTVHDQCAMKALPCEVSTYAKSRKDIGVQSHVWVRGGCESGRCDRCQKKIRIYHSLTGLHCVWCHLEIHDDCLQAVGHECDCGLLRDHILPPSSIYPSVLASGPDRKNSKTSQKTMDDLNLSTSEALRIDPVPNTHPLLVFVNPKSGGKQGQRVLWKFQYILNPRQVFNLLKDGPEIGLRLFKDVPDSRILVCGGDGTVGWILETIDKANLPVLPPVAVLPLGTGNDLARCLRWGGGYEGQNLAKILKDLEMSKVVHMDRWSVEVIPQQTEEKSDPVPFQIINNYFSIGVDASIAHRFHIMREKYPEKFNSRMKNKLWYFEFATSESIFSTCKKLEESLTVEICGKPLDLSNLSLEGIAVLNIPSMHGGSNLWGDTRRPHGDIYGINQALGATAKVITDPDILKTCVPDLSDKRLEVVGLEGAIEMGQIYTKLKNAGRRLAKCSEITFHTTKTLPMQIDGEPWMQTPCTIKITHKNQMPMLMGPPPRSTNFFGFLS

In the case of `CN(Cc1ccccc1)c1ccc(CN2C(=O)[C@@H](N)CS(=O)(=O)c3ccc(-c4nnc(C(C)(C)S(C)(=O)=O)o4)cc32)cc1` [Example 15, (3R)-3-amino-5-[[4-[benzyl(methyl)amino]phenyl]methyl]-7-[5-(1-methyl-1-methylsulfonyl-ethyl)-1,3,4-oxadiazol-2-yl]-1,1-dioxo-2,3-dihydro-1λ6,5-benzothiazepin-4-one], in the assay with primary human T-cells, the maximal effect (Emax) stood at 99% and the EC50 amounted to 3530 nM. At DGKalpha, this compound registered an IC50 of 274 nM.
`COc1cccc(-c2ccc(CN3C(=O)[C@@H](N)CS(=O)(=O)c4ccc(-c5nnc(C(C)(C)S(C)(=O)=O)o5)cc43)cc2)c1` [Example 22, (3R)-3-amino-5-[[4-(3-methoxyphenyl)phenyl]methyl]-7-[5-(1-methyl-1-methylsulfonyl-ethyl)-1,3,4-oxadiazol-2-yl]-1,1-dioxo-2,3-dihydro-1λ6,5-benzothiazepin-4-one]: in the assay with primary human T-cells, the Emax was determined as 63% and the EC50 came out at 2210 nM. For the same compound, the IC50 on DGKalpha is > 62500 nM.
For `COc1ccc(-c2ccc(CN3C(=O)[C@@H](N)CS(=O)(=O)c4cc(F)c(-c5noc(C(C)(C)S(C)(=O)=O)n5)cc43)cc2)cc1` [Example 50, (3R)-3-amino-8-fluoro-5-[[4-(4-methoxyphenyl)phenyl]methyl]-7-[5-(1-methyl-1-methylsulfonyl-ethyl)-1,2,4-oxadiazol-3-yl]-1,1-dioxo-2,3-dihydro-1λ6,5-benzothiazepin-4-one], in that order: 99%, 216 nM and 2110 nM.
For `CC(C)(c1nnc(-c2ccc3c(c2)N(Cc2ccc(-c4ccc(C#N)cc4)cc2)C(=O)[C@@H](N)CS3(=O)=O)o1)S(C)(=O)=O` [Example 20, 4-[4-[[(3R)-3-amino-7-[5-(1-methyl-1-methylsulfonyl-ethyl)-1,3,4-oxadiazol-2-yl]-1,1,4-trioxo-2,3-dihydro-1λ6,5-benzothiazepin-5-yl]methyl]phenyl]benzonitrile], in that order: 77%, 5000 nM and 1380 nM.
Turning to `CC(C)(c1nnc(-c2ccc3c(c2)N(Cc2ccc(Oc4ccccc4)cc2)C(=O)[C@@H](N)CS3(=O)=O)o1)S(=O)(=O)C1CC1` [Example 61, (3R)-3-amino-7-[5-(1-cyclopropylsulfonyl-1-methyl-ethyl)-1,3,4-oxadiazol-2-yl]-1,1-dioxo-5-[(4-phenoxyphenyl)methyl]-2,3-dihydro-1λ6,5-benzothiazepin-4-one], in the assay with primary human T-cells, the Emax is 89% and the EC50 stood at 4210 nM. 4770 nM corresponded to half-maximal inhibition on DGKalpha (IC50).
For `CC(C)(c1nnc(-c2ccc3c(c2)N(Cc2ccc(OCc4ccccc4)cc2)C(=O)[C@@H](N)CS3(=O)=O)o1)S(C)(=O)=O` [Example 11, (3R)-3-amino-5-[(4-benzyloxyphenyl)methyl]-7-[5-(1-methyl-1-methylsulfonyl-ethyl)-1,3,4-oxadiazol-2-yl]-1,1-dioxo-2,3-dihydro-1λ6,5-benzothiazepin-4-one], in that order: 140%, 932 nM and 753 nM.
Turning to `Cc1cccc(Oc2ccc(CN3C(=O)[C@@H](N)CS(=O)(=O)c4ccc(-c5nnc(C(C)(C)S(C)(=O)=O)o5)cc43)cc2)c1` [Example 31], in the assay with primary human T-cells, the Emax turned out to be 176% and the EC50 turned out to be 745 nM. The IC50 against DGKalpha worked out at 1780 nM.
Consider `CC(C)(c1nnc(-c2ccc3c(c2)N(Cc2ccc(Oc4ccc(F)c(Cl)c4)cc2)C(=O)[C@@H](N)CS3(=O)=O)o1)S(C)(=O)=O` [Example 37, (3R)-3-amino-5-[[4-(3-chloro-4-fluoro-phenoxy)phenyl]methyl]-7-[5-(1-methyl-1-methylsulfonyl-ethyl)-1,3,4-oxadiazol-2-yl]-1,1-dioxo-2,3-dihydro-1λ6,5-benzothiazepin-4-one], for which, in the assay with primary human T-cells, the Emax was 135% and the EC50 turned out to be 8140 nM. Also, the half-inhibitory concentration (IC50) on DGKalpha came out at 11100 nM.
With `COCC(C)(C)Oc1ccc(CN2C(=O)[C@@H](N)CS(=O)(=O)c3cc(F)c(-c4noc(C(C)(C)S(C)(=O)=O)n4)cc32)cc1` [Example 62, (3R)-3-amino-8-fluoro-5-[[4-(2-methoxy-1,1-dimethyl-ethoxy)phenyl]methyl]-7-[5-(1-methyl-1-methylsulfonyl-ethyl)-1,2,4-oxadiazol-3-yl]-1,1-dioxo-2,3-dihydro-benzothiazepin-4-one], in the assay with primary human T-cells, the Emax was 169% and the concentration for a half-maximal effect (EC50) was determined as 3350 nM. The same compound returned an IC50 against DGKalpha of 1070 nM.
`CC(C)(c1nnc(-c2ccc3c(c2)N(Cc2ccc(OCc4ccccc4F)cc2)C(=O)[C@@H](N)CS3(=O)=O)o1)S(C)(=O)=O` [Example 14, (3R)-3-amino-5-[[4-[(2-fluorophenyl)methoxy]phenyl]methyl]-7-[5-(1-methyl-1-methylsulfonyl-ethyl)-1,3,4-oxadiazol-2-yl]-1,1-dioxo-2,3-dihydro-1λ6,5-benzothiazepin-4-one]: in the assay with primary human T-cells, the Emax was 101% and the EC50 is 3770 nM. At DGKalpha, this compound registered an IC50 of 2020 nM.
For `CC(C)(c1nnc(-c2ccc3c(c2)N(Cc2ccc(-c4ccc(OC(F)(F)F)cn4)cc2)C(=O)[C@@H](N)CS3(=O)=O)o1)S(C)(=O)=O` [Example 69, (3R)-3-amino-1,1-diketo-7-[5-(1-mesyl-1-methyl-ethyl)-1,3,4-oxadiazol-2-yl]-5-[4-[5-(trifluoromethoxy)-2-pyridyl]benzyl]-2,3-dihydro-1λ6,5-benzothiazepin-4-one], in that order: 97%, 497 nM and 175 nM.
As for `CC(C)(c1nnc(-c2ccc3c(c2)N(Cc2ccc(Oc4cccc(F)c4)cc2)C(=O)[C@@H](N)CS3(=O)=O)o1)S(C)(=O)=O` [Example 33, (3R)-3-amino-5-[[4-(3-fluorophenoxy)phenyl]methyl]-7-[5-(1-methyl-1-methylsulfonyl-ethyl)-1,3,4-oxadiazol-2-yl]-1,1-dioxo-2,3-dihydro-1λ6,5-benzothiazepin-4-one], in the assay with primary human T-cells, the Emax was determined as 58% and the EC50 turned out to be 580 nM. Further, on DGKalpha, the midpoint of inhibition, the IC50, lay at 4750 nM.
